Values of other authors in PMC2788793 (Molecular immunology, 2008).

Target: mouse H2-Kb molecule (Mus musculus, UniProt P01901)
Conditions: ref Apostolopoulos et al., 2003

Sequence of mouse H2-Kb molecule (P01901 whole entry, looked up): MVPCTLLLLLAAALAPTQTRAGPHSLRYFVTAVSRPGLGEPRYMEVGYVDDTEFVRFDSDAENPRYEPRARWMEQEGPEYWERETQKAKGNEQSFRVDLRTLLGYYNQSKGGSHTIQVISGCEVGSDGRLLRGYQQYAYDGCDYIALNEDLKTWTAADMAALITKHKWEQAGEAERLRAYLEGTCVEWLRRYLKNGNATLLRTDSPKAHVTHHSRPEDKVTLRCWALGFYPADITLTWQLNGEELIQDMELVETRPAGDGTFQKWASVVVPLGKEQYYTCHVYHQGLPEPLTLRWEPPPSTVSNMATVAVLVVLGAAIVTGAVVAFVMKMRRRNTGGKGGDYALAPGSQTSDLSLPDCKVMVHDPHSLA

Binding to mouse H2-Kb molecule: completely abolished its binding
Substance: SAPDT(GalNAc-Gal)RPA
